These results are taken from ChEMBL document CHEMBL4393717, “Development of novel human lactate dehydrogenase A inhibitors: High-throughput screening, synthesis, and biological evaluations” (Eur J Med Chem, 2019).

The test system of assay [1] is MIA PaCa-2. The assay can be described thus: Induction of apoptosis in human MIAPaCa2 cells assessed as viable cells at 5 uM incubated for 12 hrs by annexin V and propidium iodide staining based flow cytometry analysis (reference value: 94.85 %). It is filed as functional. Particulars: MIA PaCa-2, 12 h, read-out: Activity.
Assay [2] concerns MIA PaCa-2. As to the kind of experiment: Induction of apoptosis in human MIAPaCa2 cells assessed as early apoptotic cells at 5 uM incubated for 12 hrs by annexin V and propidium iodide staining based flow cytometry analysis (reference value: 0.40 %). It is filed as functional.
For assay [3], the system named is MIA PaCa-2. As to the kind of experiment: Cell cycle arrest in human MIAPaCa2 cells assessed as accumulation at G2 phase at 5 uM incubated for 24 hrs by propidium iodide staining based flow cytometry (reference value: 31.00%). Type of assay: functional.
The test system of assay [4] is MIA PaCa-2. As to the kind of experiment: Cell cycle arrest in human MIAPaCa2 cells assessed as accumulation at G1 phase at 5 uM incubated for 24 hrs by propidium iodide staining based flow cytometry (reference value: 56.01%). Type of assay: functional.
Assay [5] relates to MIA PaCa-2. The assay can be described thus: Inhibition of colony formation in human MIAPaCa2 cells at 0.5 uM treated for 3 days and supplemented with fresh medium with out compound every 3 days measured after 15 days by crystal violet staining based assay. Type of assay: functional, cell-based.
Assay [6] relates to MIA PaCa-2. As to the kind of experiment: Induction of apoptosis in human MIAPaCa2 cells assessed as late apoptotic cells at 5 uM incubated for 12 hrs by annexin V and propidium iodide staining based flow cytometry analysis (reference value: 3.21 %). Type of assay: functional.
Assay [7] has as its system MIA PaCa-2. The assay can be described thus: Induction of apoptosis in human MIAPaCa2 cells assessed as necrotic cells at 5 uM incubated for 12 hrs by annexin V and propidium iodide staining based flow cytometry analysis (reference value: 1.54 %). Type of assay: functional.
Assay [8] deals with MIA PaCa-2. The assay can be described thus: Cell cycle arrest in human MIAPaCa2 cells assessed as accumulation at S phase at 5 uM incubated for 24 hrs by propidium iodide staining based flow cytometry (reference value: 12.99%). Type of assay: functional.
In assay [9] the test system is A549. As to the kind of experiment: Antiproliferative activity against human A549 cells assessed as reduction in cell viability at 50 uM incubated for 72 hrs by MTT assay relative to control. Type of assay: functional. Particulars: for inhibition at 50 µM: A549, 72 h.
The target in assay [10] is T1, L-lactate dehydrogenase A chain (Homo sapiens, UniProt P00338). The assay can be described thus: Inhibition of recombinant human full-length N-terminal His-tagged LDHA (1 to 332 residues) expressed in Escherichia coli at 10 uM using sodium pyruvate as substrate incubated for 10 mins relative to control.
For assay [11], the target named is T1, L-lactate dehydrogenase A chain. The assay can be described thus: Inhibition of recombinant human full-length N-terminal His-tagged LDHA (1 to 332 residues) expressed in Escherichia coli using sodium pyruvate as substrate incubated for 10 mins.
Assay [12] has as its system MIA PaCa-2. The assay can be described thus: Antiproliferative activity against human MIAPaCa2 cells assessed as reduction in cell viability incubated for 72 hrs by MTT assay. Type of assay: functional, cell-based. To be noted: MIA PaCa-2, 72 h.
Assay [13] has as its system MCF7. The assay can be described thus: Antiproliferative activity against human MCF7 cells assessed as reduction in cell viability at 50 uM incubated for 72 hrs by MTT assay relative to control. Particulars: for inhibition at 50 µM: MCF7, 72 h. Type of assay: functional.
Assay [14] relates to A549. As to the kind of experiment: Antiproliferative activity against human A549 cells assessed as reduction in cell viability at incubated for 72 hrs by MTT assay. Type of assay: functional, cell-based. Particulars: A549, 72 h.
Assay [15] concerns MIA PaCa-2. As to the kind of experiment: Antiproliferative activity against human MIAPaCa2 cells assessed as reduction in cell viability at 50 uM incubated for 72 hrs by MTT assay relative to control. It is filed as functional. To be noted: for inhibition at 50 µM: MIA PaCa-2, 72 h.

Activity calls are given as the source filed them. No cut-off for these calls is given here.

Turning to `COc1cccc2c1C(=O)c1c(O)c3c(c(O)c1C2=O)C[C@@](O)(C(=O)CO)C[C@@H]3O[C@H]1C[C@H](N)[C@H](O)[C@H](C)O1` [DOXORUBICIN], in [1], the viability at 5 µM turned out to be 74.7%. The Activity in [2] worked out at 2.26%; in assay [3] it was 54.37%; in [4], 40.09%; in assay [6], 15.66%; in assay [7], 7.4%; in [8] it was 5.54%. In addition, the inhibition entry in assay [5] is “Active”.
With `O=C(CCC1CCCCC1)N1CCN(c2ncnc3c2nnn3Cc2ccccc2)CC1`, the inhibition at 50 µM in assay [9] is 45.6%; in assay [13] it was 22.3%; in assay [15], 21.4%. The inhibition in assay [10] was above 90%. In assay [11], the concentration for a half-maximal effect (EC50) is 2.14 µM. Also, the IC50 in [12] and in assay [14] was above 50 µM throughout.
Turning to `COc1cccc(N2CCN(C3CCN(C(=O)c4cnn5c4OCCC5)CC3)CC2)c1`, the inhibition at 50 µM in [9] is 25.8%; in assay [13] it was 17.9%; in [15] it was 12.4%. Besides, the inhibition in assay [10] is above 90%. Moreover, the EC50 in [11] stood at 3.4 µM. The half-inhibitory concentration (IC50) in assay [12] and in assay [14] was above 50 µM throughout.
Regarding `N#Cc1cccnc1N1CCC(CNC(=O)C(=O)Nc2cccc(C(F)(F)F)c2)CC1`, the inhibition at 50 µM in assay [9] was 45.7%; in assay [13], 38.7%; in assay [15], 56.8%. In addition, the inhibition in [10] was above 90%. Also, in [11], the EC50 came out at 1.8 µM. Besides, the IC50 in assay [12] and in assay [14] was above 50 µM throughout.
On to `Cc1ccccc1OCC(=O)NCc1nn(C2CCCC2)c2c1COCC2`, for which the inhibition result in assay [9], in assay [13] and in assay [15] was “inactive” in each case. In addition, in assay [10], the inhibition was above 90%. Further, the EC50 in assay [11] was determined as 5.7 µM. Moreover, the IC50 in assay [12] and in assay [14] was above 50 µM each time.
In the case of `O=C1N[C@](c2ccc(N3CCOCC3)cc2)(c2ccsc2)CC(O)=C1Sc1ccccc1Cl`, the results for the IC50 in [12] and in assay [14] were 0.48 µM and 0.36 µM, respectively.
`Cc1ncn(CC(=O)N2CC(Oc3cc(C)n(C4CC4)c(=O)c3)C2)c(=O)c1C`: the inhibition at 50 µM is 4.5% in [9] and 12.3% in assay [13]. In addition, the inhibition in assay [10] is above 90%. For the same compound, the EC50 in [11] stood at 6.4 µM. Further, the concentration for half-maximal inhibition (IC50) in assay [12] and in assay [14] was above 50 µM in each case.
`COc1ccccc1OCC(=O)NC1CCC(Oc2nc(C)cc(C)n2)CC1` (stereo not given): the inhibition at 50 µM was found to be 5.9% in [9], 9.7% in assay [13] and 25.7% in [15]. In assay [10], the inhibition is above 90%. Moreover, the EC50 in assay [11] amounted to 4.1 µM. Further, the half-inhibitory concentration (IC50) in assay [12] and in [14] was above 50 µM each time.
Consider `O=C(c1ccco1)N1CCN(Cc2cc(=O)c(OCc3ccccc3Cl)co2)CC1`, for which the EC50 in assay [11] was determined as 12.4 µM. Moreover, the IC50 in assay [12] and in assay [14] was above 50 µM each time.
Turning to `O=C(NCC(=O)N1CCCC(Cc2nc(C3CC3)no2)C1)c1ccccc1` (stereo not given), the inhibition at 50 µM in assay [9] was 25.8%; in assay [13], 17.9%; in [15], 12.5%. For the same compound, the inhibition in assay [10] was above 90%. For the same compound, the concentration giving a half-maximal response (EC50) in assay [11] was found to be 3.3 µM. Moreover, the 50% inhibitory concentration (IC50) in [12] and in assay [14] was above 50 µM in each case.
As to `O=C(c1ccco1)N1CCN(Cc2cc(=O)c(OCc3ccccc3)co2)CC1`, the values for the inhibition at 50 µM in assay [9], in assay [13] and in assay [15] were 84.7%, 93.4% and 95.6%, respectively. For the same compound, the inhibition in assay [10] is above 90%. Further, the EC50 in assay [11] turned out to be 0.68 µM. Moreover, the IC50 was found to be 12.5 µM in assay [12] and 14.7 µM in assay [14].
In the case of `O=C(c1ccco1)N1CCN(Cc2cc(=O)c(OCc3c(F)cccc3Cl)co2)CC1`, in assay [11], the half-maximal effective concentration (EC50) turned out to be 5.6 µM. In addition, the IC50 in assay [12] and in [14] was above 50 µM in each case.
As to `COc1cc(CNC(=O)c2c(OC)cc(=O)n3c2CCC3)cc(OC)c1OC`, the inhibition entry in assay [9], in assay [13] and in assay [15] was “inactive” throughout. Moreover, the inhibition in [10] is above 90%. Further, in assay [11], the half-maximal effective concentration (EC50) amounted to 4.58 µM. For the same compound, the IC50 in [12] and in assay [14] was above 50 µM throughout.
As to `CC(=O)c1ccc(NC(=O)COc2cc(C)nc(C3CCC(C)CC3)n2)cc1` (stereo not given), the figures for the inhibition at 50 µM in assay [9], in assay [13] and in assay [15] were 45.8%, 85.7% and 75.6%, respectively. In assay [10], the inhibition is above 90%. Also, in assay [11], the concentration for a half-maximal effect (EC50) amounted to 1.2 µM. Also, the values for the IC50 in assay [12] and in [14] were 29.8 µM and 22.7 µM, respectively.
In the case of `O=C(c1ccco1)N1CCN(Cc2cc(=O)c(OCc3ccc(F)cc3)co2)CC1`, in [11], the concentration giving a half-maximal response (EC50) came out at 9.7 µM. Further, the half-inhibitory concentration (IC50) in assay [12] and in assay [14] was above 50 µM in each case.
Consider `Cc1cc(N2CCC(CNS(=O)(=O)c3cccc4cccnc34)CC2)ccn1`, for which the values for the inhibition at 50 µM in assay [9] and in [15] were 14.7% and 25.8%, respectively. The inhibition in assay [10] was above 90%. The EC50 in assay [11] is 0.34 µM. For the same compound, the IC50 in assay [12] and in [14] was above 50 µM each time.
Consider `O=C(c1ccco1)N1CCN(Cc2cc(=O)c(OCc3cccc(Cl)c3)co2)CC1`, for which the concentration for a half-maximal effect (EC50) in [11] came out at 0.27 µM. Also, the IC50 in assay [12] is 3.8 µM; in [14], 5.7 µM.
As to `O=C(c1ccco1)N1CCN(Cc2cc(=O)c(OCc3cccc(F)c3)co2)CC1`, the concentration giving a half-maximal response (EC50) in [11] came to 3.7 µM. Moreover, the figures for the concentration for half-maximal inhibition (IC50) in assay [12] and in assay [14] were 24.5 µM and 18.9 µM, respectively.
As to `O=C(CC1CSc2nc3c(cnn3-c3ccccc3)c(=O)n21)NCCCn1ccnc1` (stereo not given), the inhibition at 50 µM in assay [9] came to 36.9%; in assay [13], 14.7%; in [15], 15.8%. Moreover, in [10], the inhibition was above 90%. Moreover, the half-maximal effective concentration (EC50) in assay [11] was found to be 7.8 µM. In addition, the IC50 in assay [12] and in assay [14] was above 50 µM in each case.
Regarding `COc1cccc2c1OC(C(=O)N1CCC(Cn3ccnc3C(C)C)CC1)C2` (stereo not given), the inhibition result in assay [9], in assay [13] and in assay [15] was “inactive” in each case. The inhibition in assay [10] is above 90%. Besides, the EC50 in [11] is 7.5 µM. Moreover, the IC50 in [12] and in assay [14] was above 50 µM in each case.
Consider `NC(=O)C(=O)O` [SODIUM OXAMATE], for which the 50% inhibitory concentration (IC50) in assay [12] came to 18900 µM; in assay [14] it was 45800 µM.
With `O=C(Cn1cnc2ccccc2c1=O)N1CCN(C(=O)c2cc3n(n2)CCCC3)CC1`, the inhibition at 50 µM was 45.6% in assay [9], 25.7% in assay [13] and 58.7% in assay [15]. The inhibition in [10] is above 90%. Further, in [11], the EC50 worked out at 0.89 µM. Also, the IC50 in [12] and in [14] was above 50 µM throughout.
Consider `Cc1ncn(CC(=O)N2CCC(Oc3cncc(N(C)C)n3)C2)c(=O)c1C` (stereo not given), for which the results for the inhibition at 50 µM in assay [9], in [13] and in assay [15] were 47.8%, 50.1% and 25.8%, respectively. Also, the inhibition in [10] is above 90%. Further, in assay [11], the half-maximal effective concentration (EC50) amounted to 2.9 µM. Besides, the IC50 in [12] and in assay [14] was above 50 µM throughout.
